According to paper PMC9186362, “Design and biological evaluation of substituted 5,7-dihydro-6H-indolo[2,3-c]quinolin-6-one as novel selective Haspin inhibitors” (Journal of Enzyme Inhibition and Medicinal Chemistry, 2022):

Key:
Experiment in all cases: SelectScreen ZLYTE
Type in all cases: biochemical
[1] = molecular target: AMPK A2/B1/G1 (Homo sapiens, UniProt P54646); conditions: ATP Km, read-out: Percentage of inhibition
Procedure: (§1) We further evaluated the selectivity profile of compound 55 on a larger panel of kinases (SelectScreen Whole Panel, Life Technologies). The inhibition profile of 55, evaluated at 1 μM, is depicted on a dendrogram on Figure 3 where kinases inhibited by a minimum of 80% are shown. A full list of the kinases tested is shown on Table S1 in supplementary information.

[2] = molecular target: AURKA (Aurora A) (Homo sapiens, UniProt O14965); conditions: ATP Km, read-out: Percentage of inhibition
Procedure: as §1

[3] = molecular target: CAMK1G (CAMKI gamma) (Homo sapiens, UniProt Q96NX5); conditions: ATP Km, read-out: Percentage of inhibition
Procedure: as §1

[4] = molecular target: T1, CAMK2D (CaMKII delta) (Homo sapiens, UniProt Q13557); conditions: ATP Km, read-out: Percentage of inhibition
T1 construct: purchased Life Technologies (SelectScreen Whole Panel)
Procedure: as §1

[5] = molecular target: T2, CDC42 BPB (MRCKB) (Homo sapiens, UniProt Q9Y5S2); conditions: ATP Km, read-out: Percentage of inhibition
T2 construct: purchased Life Technologies (SelectScreen Whole Panel service)
Procedure: as §1

[6] = molecular target: T3, CDKL5 (Homo sapiens, UniProt O76039); conditions: ATP Km, read-out: Percentage of inhibition
T3 construct: purchased Life Technologies
Procedure: as §1

[7] = molecular target: CHEK1 (CHK1) (Homo sapiens, UniProt O14757); conditions: ATP Km, read-out: Percentage of inhibition
Procedure: as §1

[8] = molecular target: T4, CSNK1E (CK1 epsilon) (Homo sapiens, UniProt P49674); conditions: ATP Km, read-out: Percentage of inhibition
T4 construct: purchased Life Technologies (SelectScreen service)
Procedure: as §1

[9] = molecular target: CSNK1G1 (CK1 gamma 1) (Homo sapiens, UniProt Q9HCP0); conditions: ATP Km, read-out: Percentage of inhibition
Procedure: as §1

[10] = molecular target: T5, DNA-PK (Homo sapiens, UniProt P78527); conditions: ATP Km, read-out: Percentage of inhibition
T5 construct: purchased Life Technologies (SelectScreen Whole Panel)
Procedure: as §1

[11] = molecular target: T6, DYRK3 (Homo sapiens, UniProt O43781); conditions: ATP Km, read-out: Percentage of inhibition
T6 construct: purchased Life Technologies (SelectScreen service)
Procedure: as §1

[12] = molecular target: T7, EGFR (ErbB1) C797S (Homo sapiens, UniProt P00533, C797S); conditions: ATP Km, read-out: Percentage of inhibition
T7 construct: purchased Life Technologies
Procedure: as §1

[13] = molecular target: T8, EPHA8 (Homo sapiens, UniProt P29322); conditions: ATP Km, read-out: Percentage of inhibition
T8 construct: purchased Life Technologies (SelectScreen Whole Panel service)
Procedure: as §1

[14] = molecular target: T9, FLT1 (VEGFR1) (Homo sapiens, UniProt P17948); conditions: ATP Km, read-out: Percentage of inhibition
T9 construct: purchased Life Technologies (SelectScreen Whole Panel service)
Procedure: as §1

[15] = molecular target: T10, FLT3 (Homo sapiens, UniProt P36888); conditions: ATP Km, read-out: Percentage of inhibition
T10 construct: purchased Life Technologies
Procedure: as §1

[16] = molecular target: T11, FLT3 D835Y (Homo sapiens, UniProt P36888, D835Y); conditions: ATP Km, read-out: Percentage of inhibition
T11 construct: purchased Life Technologies (SelectScreen Whole Panel)
Procedure: as §1

[17] = molecular target: FRAP1 (mTOR) (Homo sapiens, UniProt P42345); conditions: ATP Km, read-out: Percentage of inhibition
Procedure: as §1

[18] = molecular target: T12, GRK6 (Homo sapiens, UniProt P43250); conditions: ATP Km, read-out: Percentage of inhibition
T12 construct: purchased Life Technologies
Procedure: as §1

[19] = molecular target: T13, GRK7 (Homo sapiens, UniProt Q8WTQ7); conditions: ATP Km, read-out: Percentage of inhibition
T13 construct: purchased Life Technologies (SelectScreen service)
Procedure: as §1

[20] = molecular target: KDR (VEGFR2) (Homo sapiens, UniProt P35968); conditions: ATP Km, read-out: Percentage of inhibition
Procedure: as §1

[21] = molecular target: MAP3K9 (MLK1) (Homo sapiens, UniProt P80192); conditions: ATP Km, read-out: Percentage of inhibition
Procedure: as §1

[22] = molecular target: T14, MAP4K5 (KHS1) (Homo sapiens, UniProt Q9Y4K4); conditions: ATP Km, read-out: Percentage of inhibition
T14 construct: purchased Life Technologies (SelectScreen service)
Procedure: as §1

[23] = molecular target: T15, MAPK10 (JNK3) (Homo sapiens, UniProt P53779); conditions: ATP 100 µM, read-out: Percentage of inhibition
T15 construct: purchased Life Technologies
Procedure: as §1

[24] = molecular target: T16, MAPKAPK2 (Homo sapiens, UniProt P49137); conditions: ATP Km, read-out: Percentage of inhibition
T16 construct: purchased Life Technologies
Procedure: as §1

[25] = molecular target: MAPKAPK5 (PRAK) (Homo sapiens, UniProt Q8IW41); conditions: ATP Km, read-out: Percentage of inhibition
Procedure: as §1

[26] = molecular target: MST4 (Homo sapiens, UniProt Q9P289); conditions: ATP Km, read-out: Percentage of inhibition
Procedure: as §1

[27] = molecular target: T17, MUSK (Homo sapiens, UniProt O15146); conditions: ATP Km, read-out: Percentage of inhibition
T17 construct: purchased Life Technologies (SelectScreen Whole Panel service)
Procedure: as §1

[28] = molecular target: T18, NIM1K (Homo sapiens, UniProt Q8IY84); conditions: ATP Km, read-out: Percentage of inhibition
T18 construct: purchased Life Technologies (SelectScreen)
Procedure: as §1

[29] = molecular target: PDGFRA T674I (Homo sapiens, UniProt P16234, T674I); conditions: ATP Km, read-out: Percentage of inhibition
Procedure: as §1

[30] = molecular target: T19, PHKG1 (Homo sapiens, UniProt Q16816); conditions: ATP Km, read-out: Percentage of inhibition
T19 construct: purchased Life Technologies
Procedure: as §1

[31] = molecular target: T20, PLK2 (Homo sapiens, UniProt Q9NYY3); conditions: ATP Km, read-out: Percentage of inhibition
T20 construct: purchased Life Technologies (SelectScreen service)
Procedure: as §1

[32] = molecular target: T21, PRKD1 (PKC mu) (Homo sapiens, UniProt Q15139); conditions: ATP Km, read-out: Percentage of inhibition
T21 construct: purchased Life Technologies (SelectScreen Whole Panel service)
Procedure: as §1

[33] = molecular target: T22, RET V804E (Homo sapiens, UniProt P07949, V804E); conditions: ATP Km, read-out: Percentage of inhibition
T22 construct: purchased Life Technologies (SelectScreen service)
Procedure: as §1

[34] = molecular target: T23, RET V804L (Homo sapiens, UniProt P07949, V804L); conditions: ATP Km, read-out: Percentage of inhibition
T23 construct: purchased Life Technologies
Procedure: as §1

[35] = molecular target: T24, ROCK1 (Homo sapiens, UniProt Q13464); conditions: ATP Km, read-out: Percentage of inhibition
T24 construct: purchased Life Technologies (SelectScreen Whole Panel service)
Procedure: as §1

[36] = molecular target: T25, ROCK2 (Homo sapiens, UniProt O75116); conditions: ATP Km, read-out: Percentage of inhibition
T25 construct: purchased Life Technologies
Procedure: as §1

[37] = molecular target: T26, RPS6KB2 (p70S6Kb) (Homo sapiens, UniProt Q9UBS0); conditions: ATP Km, read-out: Percentage of inhibition
T26 construct: purchased Life Technologies (SelectScreen)
Procedure: as §1

[38] = molecular target: T27, SGKL (SGK3) (Homo sapiens, UniProt Q96BR1); conditions: ATP Km, read-out: Percentage of inhibition
T27 construct: purchased Life Technologies (SelectScreen)
Procedure: as §1

T21 sequence (Q15139 whole entry): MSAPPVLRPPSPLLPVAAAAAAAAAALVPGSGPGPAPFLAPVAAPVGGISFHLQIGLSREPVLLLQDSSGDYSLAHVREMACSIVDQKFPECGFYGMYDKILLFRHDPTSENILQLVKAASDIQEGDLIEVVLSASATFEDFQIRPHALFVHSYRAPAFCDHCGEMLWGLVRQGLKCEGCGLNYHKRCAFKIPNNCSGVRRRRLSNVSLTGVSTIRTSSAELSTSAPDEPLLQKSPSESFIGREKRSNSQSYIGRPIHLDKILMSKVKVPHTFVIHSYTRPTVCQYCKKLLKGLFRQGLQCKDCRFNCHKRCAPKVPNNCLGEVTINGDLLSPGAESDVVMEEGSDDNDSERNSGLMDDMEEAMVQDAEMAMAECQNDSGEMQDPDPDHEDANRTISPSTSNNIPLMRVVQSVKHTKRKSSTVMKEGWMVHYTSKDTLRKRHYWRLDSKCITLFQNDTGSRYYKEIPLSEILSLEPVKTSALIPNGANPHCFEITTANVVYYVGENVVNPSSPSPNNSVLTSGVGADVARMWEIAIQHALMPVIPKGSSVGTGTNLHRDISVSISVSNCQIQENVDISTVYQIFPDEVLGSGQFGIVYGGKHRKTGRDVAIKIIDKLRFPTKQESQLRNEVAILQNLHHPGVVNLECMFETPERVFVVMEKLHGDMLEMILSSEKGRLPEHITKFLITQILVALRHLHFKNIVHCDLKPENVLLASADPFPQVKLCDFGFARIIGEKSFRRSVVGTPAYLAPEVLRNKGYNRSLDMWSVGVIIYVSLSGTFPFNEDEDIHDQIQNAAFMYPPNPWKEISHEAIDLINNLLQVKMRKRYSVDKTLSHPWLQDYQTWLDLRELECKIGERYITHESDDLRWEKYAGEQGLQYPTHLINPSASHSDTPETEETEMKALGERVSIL
Sequence of MAP3K9 (MLK1) (P80192 whole entry): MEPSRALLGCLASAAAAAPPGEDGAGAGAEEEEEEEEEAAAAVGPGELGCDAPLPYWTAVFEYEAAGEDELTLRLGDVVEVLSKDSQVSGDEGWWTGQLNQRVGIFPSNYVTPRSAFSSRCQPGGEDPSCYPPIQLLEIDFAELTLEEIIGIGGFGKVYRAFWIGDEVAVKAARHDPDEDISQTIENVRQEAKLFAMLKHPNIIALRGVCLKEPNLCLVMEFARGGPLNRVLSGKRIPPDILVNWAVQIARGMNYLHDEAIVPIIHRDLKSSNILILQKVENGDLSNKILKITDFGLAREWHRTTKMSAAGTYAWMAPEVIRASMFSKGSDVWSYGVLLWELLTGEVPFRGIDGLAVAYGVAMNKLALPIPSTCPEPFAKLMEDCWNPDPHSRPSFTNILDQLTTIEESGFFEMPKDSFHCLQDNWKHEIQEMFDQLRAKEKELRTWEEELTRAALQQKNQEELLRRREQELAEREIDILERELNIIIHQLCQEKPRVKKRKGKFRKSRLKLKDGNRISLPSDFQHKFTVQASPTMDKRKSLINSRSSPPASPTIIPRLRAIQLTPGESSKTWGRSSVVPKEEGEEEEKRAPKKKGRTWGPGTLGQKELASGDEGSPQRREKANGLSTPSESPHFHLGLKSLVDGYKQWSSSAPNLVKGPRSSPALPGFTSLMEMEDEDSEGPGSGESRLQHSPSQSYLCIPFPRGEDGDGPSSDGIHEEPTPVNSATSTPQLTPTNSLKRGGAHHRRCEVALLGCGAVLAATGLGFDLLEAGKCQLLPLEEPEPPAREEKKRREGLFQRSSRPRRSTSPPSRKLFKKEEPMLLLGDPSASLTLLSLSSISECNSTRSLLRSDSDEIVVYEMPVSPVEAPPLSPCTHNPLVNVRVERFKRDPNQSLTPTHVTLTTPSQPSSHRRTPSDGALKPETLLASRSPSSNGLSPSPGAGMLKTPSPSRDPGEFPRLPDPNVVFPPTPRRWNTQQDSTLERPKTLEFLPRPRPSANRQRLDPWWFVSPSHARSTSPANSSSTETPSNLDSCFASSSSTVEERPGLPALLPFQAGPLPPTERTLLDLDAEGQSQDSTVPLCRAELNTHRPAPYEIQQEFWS
T2 sequence (Q9Y5S2 whole entry): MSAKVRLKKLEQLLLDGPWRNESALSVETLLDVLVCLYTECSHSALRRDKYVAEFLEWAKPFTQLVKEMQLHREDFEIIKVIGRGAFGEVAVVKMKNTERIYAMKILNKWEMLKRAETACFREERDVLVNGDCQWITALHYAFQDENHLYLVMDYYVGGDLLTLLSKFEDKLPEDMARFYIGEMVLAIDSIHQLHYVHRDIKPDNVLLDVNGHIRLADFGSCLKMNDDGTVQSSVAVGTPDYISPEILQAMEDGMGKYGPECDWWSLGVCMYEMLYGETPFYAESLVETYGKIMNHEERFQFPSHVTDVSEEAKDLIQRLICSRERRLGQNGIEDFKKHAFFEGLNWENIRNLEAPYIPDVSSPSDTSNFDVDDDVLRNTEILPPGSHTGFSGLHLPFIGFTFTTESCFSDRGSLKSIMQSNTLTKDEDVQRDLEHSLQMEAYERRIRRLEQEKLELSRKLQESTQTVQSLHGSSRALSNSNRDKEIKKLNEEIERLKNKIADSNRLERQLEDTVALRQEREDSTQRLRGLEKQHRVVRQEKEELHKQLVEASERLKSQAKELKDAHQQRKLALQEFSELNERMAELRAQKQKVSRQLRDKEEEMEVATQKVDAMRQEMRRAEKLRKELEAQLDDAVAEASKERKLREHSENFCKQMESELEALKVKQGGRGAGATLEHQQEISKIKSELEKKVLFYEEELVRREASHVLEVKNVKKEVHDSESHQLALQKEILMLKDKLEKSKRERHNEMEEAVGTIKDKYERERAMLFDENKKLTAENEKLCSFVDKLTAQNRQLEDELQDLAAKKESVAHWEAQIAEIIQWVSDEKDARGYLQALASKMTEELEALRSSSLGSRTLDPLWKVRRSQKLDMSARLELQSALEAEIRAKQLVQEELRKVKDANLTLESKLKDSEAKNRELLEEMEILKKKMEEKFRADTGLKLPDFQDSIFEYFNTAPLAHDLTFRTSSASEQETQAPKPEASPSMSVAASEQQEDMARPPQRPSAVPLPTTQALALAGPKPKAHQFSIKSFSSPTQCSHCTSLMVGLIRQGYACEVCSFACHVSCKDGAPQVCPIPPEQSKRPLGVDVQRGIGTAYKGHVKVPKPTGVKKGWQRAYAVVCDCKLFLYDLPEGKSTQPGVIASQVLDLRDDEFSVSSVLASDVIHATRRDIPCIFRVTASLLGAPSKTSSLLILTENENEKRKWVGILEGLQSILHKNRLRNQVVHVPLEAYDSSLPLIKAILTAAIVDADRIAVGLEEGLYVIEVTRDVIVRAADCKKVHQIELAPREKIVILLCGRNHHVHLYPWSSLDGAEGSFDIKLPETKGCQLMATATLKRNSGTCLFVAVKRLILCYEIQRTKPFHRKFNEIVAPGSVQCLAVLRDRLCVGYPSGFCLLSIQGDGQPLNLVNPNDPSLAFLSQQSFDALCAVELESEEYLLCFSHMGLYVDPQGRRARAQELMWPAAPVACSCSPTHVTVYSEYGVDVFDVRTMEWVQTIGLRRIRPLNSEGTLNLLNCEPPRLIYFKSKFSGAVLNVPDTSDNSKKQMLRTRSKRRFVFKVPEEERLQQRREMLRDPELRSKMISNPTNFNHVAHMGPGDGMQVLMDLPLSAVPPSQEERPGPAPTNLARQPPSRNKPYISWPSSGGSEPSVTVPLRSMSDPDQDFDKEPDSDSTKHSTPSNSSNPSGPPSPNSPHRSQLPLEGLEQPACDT
Sequence of CHEK1 (CHK1) (O14757 whole entry): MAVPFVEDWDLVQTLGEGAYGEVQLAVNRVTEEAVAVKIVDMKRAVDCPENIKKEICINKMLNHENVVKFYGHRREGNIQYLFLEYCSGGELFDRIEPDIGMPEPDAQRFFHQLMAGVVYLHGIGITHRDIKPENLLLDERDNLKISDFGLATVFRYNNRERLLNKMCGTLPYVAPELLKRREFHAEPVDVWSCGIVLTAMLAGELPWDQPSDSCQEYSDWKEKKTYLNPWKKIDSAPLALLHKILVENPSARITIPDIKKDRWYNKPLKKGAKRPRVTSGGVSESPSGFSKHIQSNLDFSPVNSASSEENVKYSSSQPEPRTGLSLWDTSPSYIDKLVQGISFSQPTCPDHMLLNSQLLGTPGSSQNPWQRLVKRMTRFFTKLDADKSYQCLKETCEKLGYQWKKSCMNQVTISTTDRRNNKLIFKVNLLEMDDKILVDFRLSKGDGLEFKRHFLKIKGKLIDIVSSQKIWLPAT
T19 sequence (Q16816 whole entry): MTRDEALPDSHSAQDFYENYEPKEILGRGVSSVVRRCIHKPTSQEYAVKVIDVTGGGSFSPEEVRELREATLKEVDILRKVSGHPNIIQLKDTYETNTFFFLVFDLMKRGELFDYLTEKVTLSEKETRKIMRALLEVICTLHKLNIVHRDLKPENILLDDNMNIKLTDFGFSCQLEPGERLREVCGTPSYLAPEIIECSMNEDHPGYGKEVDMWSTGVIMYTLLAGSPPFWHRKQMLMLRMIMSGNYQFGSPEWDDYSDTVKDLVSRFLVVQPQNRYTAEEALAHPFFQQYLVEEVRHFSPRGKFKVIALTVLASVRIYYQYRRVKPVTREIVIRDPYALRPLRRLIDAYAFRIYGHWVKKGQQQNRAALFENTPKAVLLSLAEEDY
Sequence of CSNK1G1 (CK1 gamma 1) (Q9HCP0 whole entry): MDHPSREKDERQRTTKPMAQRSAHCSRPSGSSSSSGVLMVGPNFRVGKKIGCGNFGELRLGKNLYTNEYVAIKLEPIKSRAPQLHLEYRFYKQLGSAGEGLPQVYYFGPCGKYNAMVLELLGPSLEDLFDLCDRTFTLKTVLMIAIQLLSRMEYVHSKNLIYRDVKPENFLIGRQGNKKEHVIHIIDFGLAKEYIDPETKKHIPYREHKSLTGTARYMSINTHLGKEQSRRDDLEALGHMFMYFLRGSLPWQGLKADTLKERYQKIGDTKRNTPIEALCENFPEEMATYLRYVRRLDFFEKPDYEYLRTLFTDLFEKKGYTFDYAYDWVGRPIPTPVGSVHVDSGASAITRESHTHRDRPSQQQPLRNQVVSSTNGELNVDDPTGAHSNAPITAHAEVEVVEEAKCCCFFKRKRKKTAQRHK

COc1ccc2[nH]c3c(=O)[nH]c4ccc(O)cc4c3c2c1 [Compound 55, 2-Hydroxy-10-methoxy-5,7-dihydro-6H-indolo[2,3-c]quinolin-6-one]
inhibition at 1 µM [1]: 58%
inhibition at 1 µM [2]: 58%
inhibition at 1 µM [3]: 14%
inhibition at 1 µM [4]: 50%
inhibition at 1 µM [5]: 10%
inhibition at 1 µM [6]: 5%
inhibition at 1 µM [7]: 19%
inhibition at 1 µM [8]: 73%
inhibition at 1 µM [9]: 20%
inhibition at 1 µM [10]: 54%
inhibition at 1 µM [11]: 86%
inhibition at 1 µM [12]: 4%
inhibition at 1 µM [13]: 10%
inhibition at 1 µM [14]: 10%
inhibition at 1 µM [15]: 93%
inhibition at 1 µM [16]: 100%
inhibition at 1 µM [17]: 6%
inhibition at 1 µM [18]: 32%
inhibition at 1 µM [19]: 74%
inhibition at 1 µM [20]: 67%
inhibition at 1 µM [21]: 63%
inhibition at 1 µM [22]: 90%
inhibition at 1 µM [23]: 15%
inhibition at 1 µM [24]: 2%
inhibition at 1 µM [25]: 22%
inhibition at 1 µM [26]: 61%
inhibition at 1 µM [27]: 18%
inhibition at 1 µM [28]: 9%
inhibition at 1 µM [29]: 6%
inhibition at 1 µM [30]: 32%
inhibition at 1 µM [31]: 74%
inhibition at 1 µM [32]: 45%
inhibition at 1 µM [33]: 86%
inhibition at 1 µM [34]: 98%
inhibition at 1 µM [35]: 11%
inhibition at 1 µM [36]: 4%
inhibition at 1 µM [37]: 8%
inhibition at 1 µM [38]: 9%
